Measured values taken from ChEMBL document CHEMBL1145657, “Chemistry of Acronycine I. Carbon- 13 NMR Studies of Acronycine and Related Compounds” (J Nat Prod, 1983).
Active and inactive are the calls of the source. The calls are words filed in the database; no cut-off is given here.

Test system: KB
Test: Cytotoxicity against human KB cells
Format: functional, cell-based

Which Activity does the source give for `Cn1c2ccccc2c(=O)c2c(O)cc3c(c21)CCC(C)(C)O3` here?
The Activity was “inactive”.

Which Activity does the source give for `Cn1c2ccccc2c(=O)c2c(O)cc3c(c21)C=CC(C)(C)O3` here?
The Activity was “inactive”.
